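Values below derive from 48-hour exposures of cells grown in 96-well plates, with endpoints linearly interpolated between the two concentrations bracketing the appropriate inhibition level. At the GI50, growth is halved.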 The source made the active and inactive calls. Rule as the data show it: active = GI50 up to about 1.1 µM and inactive = higher.
Assays:
Assay in all cases: DTP human tumour cell line panel, 48 h
[1] = test system: SNB-75
[2] = test system: CAKI-1
[3] = test system: OVCAR-3
[4] = test system: NCI-H522
[5] = test system: SK-MEL-5
[6] = test system: TK-10
[7] = test system: UACC-62
[8] = test system: OVCAR-5
[9] = test system: RXF 393
[10] = test system: SN12C
[11] = test system: ACHN
[12] = test system: RPMI-8226
[13] = test system: HT-29
[14] = test system: SNB-19
[15] = test system: UO-31
[16] = test system: SF-295
[17] = test system: A549
[18] = test system: SK-MEL-28
[19] = test system: UACC-257
[20] = test system: Malme-3M

Row | Structure (SMILES) | GI50 [1] | GI50 [2] | GI50 [3] | GI50 [4] | GI50 [5] | GI50 [6] | GI50 [7] | GI50 [8] | GI50 [9] | GI50 [10] | GI50 [11] | GI50 [12] | GI50 [13] | GI50 [14] | GI50 [15] | GI50 [16] | GI50 [17] | GI50 [18] | GI50 [19] | GI50 [20]
1 | O=C(NC1C=CCC2C(=O)N(c3ccccc3)C(=O)C12)OCc1ccccc1 (configuration not stated) | > 100 µM (inactive) | > 100 µM (inactive) | > 100 µM (inactive) | > 100 µM (inactive) | > 100 µM (inactive) | > 100 µM (inactive) | > 100 µM (inactive) | 97.3 µM (inactive) | > 100 µM (inactive) | > 100 µM (inactive) | > 100 µM (inactive) | > 100 µM (inactive) | > 100 µM (inactive) | > 100 µM (inactive) | > 100 µM (inactive) | > 100 µM (inactive) | > 100 µM (inactive) | > 100 µM (inactive) | > 100 µM (inactive) | –
2 | Cc1cccc(C(C)C)c1NC(=O)/C(Cc1c([N+](=O)[O-])cccc1[N+](=O)[O-])=N/NC(=O)CC#N | > 100 µM (inactive) | > 100 µM (inactive) | > 100 µM (inactive) | > 100 µM (inactive) | > 100 µM (inactive) | 80.9 µM (inactive) | > 100 µM (inactive) | > 100 µM (inactive) | > 100 µM (inactive) | – | > 100 µM (inactive) | – | > 100 µM (inactive) | > 100 µM (inactive) | > 100 µM (inactive) | > 100 µM (inactive) | > 100 µM (inactive) | > 100 µM (inactive) | – | > 100 µM (inactive)
3 | Cn1cc(NC(=O)[C@H]2CCC(N)=N2)cc1C(=O)NCCC(=N)N | > 100 µM (inactive) | – | > 100 µM (inactive) | > 100 µM (inactive) | – | > 100 µM (inactive) | > 100 µM (inactive) | – | > 100 µM (inactive) | > 100 µM (inactive) | > 100 µM (inactive) | > 100 µM (inactive) | > 100 µM (inactive) | > 100 µM (inactive) | > 100 µM (inactive) | > 100 µM (inactive) | > 100 µM (inactive) | > 100 µM (inactive) | > 100 µM (inactive) | > 100 µM (inactive)
4 | COc1ccc(-c2c3c(nc4nc(SCCc5ccccc5)nc(N)c24)CCCC3)cc1OC | 20.5 µM (inactive) | > 100 µM (inactive) | > 100 µM (inactive) | – | > 100 µM (inactive) | > 100 µM (inactive) | > 100 µM (inactive) | > 100 µM (inactive) | 24.9 µM (inactive) | > 100 µM (inactive) | > 100 µM (inactive) | > 100 µM (inactive) | > 100 µM (inactive) | > 100 µM (inactive) | > 100 µM (inactive) | 22.7 µM (inactive) | > 100 µM (inactive) | > 100 µM (inactive) | > 100 µM (inactive) | > 100 µM (inactive)
5 | CC1CC/C(=C\c2ccc(Cl)cc2)C(=O)/C1=C\c1ccc(Cl)cc1 (configuration not stated) | 49.2 µM (inactive) | 20.3 µM (inactive) | – | – | 20.4 µM (inactive) | 29.1 µM (inactive) | 25.4 µM (inactive) | 21.6 µM (inactive) | 33.9 µM (inactive) | 30.8 µM (inactive) | 32.9 µM (inactive) | – | 30.9 µM (inactive) | > 10 µM (inactive) | 36.4 µM (inactive) | – | 35.3 µM (inactive) | 53.1 µM (inactive) | 42.7 µM (inactive) | –
6 | c1ccc2c(c1)CCCC/C2=N/OCC1CO1 (configuration not stated) | 54.5 µM (inactive) | – | – | – | 35.5 µM (inactive) | > 100 µM (inactive) | – | – | 53.6 µM (inactive) | 51.5 µM (inactive) | 99.1 µM (inactive) | 30.3 µM (inactive) | 42.1 µM (inactive) | – | < 0.01 µM (active) | 58.7 µM (inactive) | 56.4 µM (inactive) | 61 µM (inactive) | 46.5 µM (inactive) | 67.6 µM (inactive)
7 | CC1CN=C(N(C(=O)Nc2ccccc2)C2CCCCC2)S1 (configuration not stated) | 12.6 µM (inactive) | 12.4 µM (inactive) | 17.7 µM (inactive) | – | 15.1 µM (inactive) | 16.7 µM (inactive) | – | 14.7 µM (inactive) | – | 16.6 µM (inactive) | 13.5 µM (inactive) | 18.8 µM (inactive) | 17 µM (inactive) | 29.2 µM (inactive) | 17.3 µM (inactive) | 16.7 µM (inactive) | 16.7 µM (inactive) | 12.4 µM (inactive) | 16 µM (inactive) | 16.3 µM (inactive)
8 | CCOC(=O)NC(OCc1ccccc1)(C(=O)OC)C(F)(F)F (configuration not stated) | > 10 µM (inactive) | 8.2 µM (inactive) | > 100 µM (inactive) | > 100 µM (inactive) | > 100 µM (inactive) | > 100 µM (inactive) | > 100 µM (inactive) | > 100 µM (inactive) | > 100 µM (inactive) | > 100 µM (inactive) | > 100 µM (inactive) | > 100 µM (inactive) | > 100 µM (inactive) | > 100 µM (inactive) | > 100 µM (inactive) | > 100 µM (inactive) | > 100 µM (inactive) | > 100 µM (inactive) | > 100 µM (inactive) | –
9 | COC(=O)C(=O)Cc1nc2ccccc2o1 | > 100 µM (inactive) | – | > 100 µM (inactive) | > 100 µM (inactive) | – | > 100 µM (inactive) | > 100 µM (inactive) | > 100 µM (inactive) | > 100 µM (inactive) | > 100 µM (inactive) | > 100 µM (inactive) | – | > 100 µM (inactive) | > 100 µM (inactive) | > 100 µM (inactive) | – | – | > 100 µM (inactive) | > 100 µM (inactive) | > 100 µM (inactive)
10 | CCOC(=O)c1c(N=C(S)Nc2ccccc2)sc2c1CCN(C)C2 | – | > 100 µM (inactive) | > 100 µM (inactive) | – | > 100 µM (inactive) | > 100 µM (inactive) | > 100 µM (inactive) | > 100 µM (inactive) | > 100 µM (inactive) | > 100 µM (inactive) | > 100 µM (inactive) | > 100 µM (inactive) | > 100 µM (inactive) | > 100 µM (inactive) | > 100 µM (inactive) | > 100 µM (inactive) | > 100 µM (inactive) | – | > 100 µM (inactive) | –
11 | N#CCc1c(F)c(F)c(F)c(F)c1F | – | > 100 µM (inactive) | – | > 100 µM (inactive) | 54.6 µM (inactive) | > 100 µM (inactive) | > 100 µM (inactive) | > 100 µM (inactive) | > 100 µM (inactive) | > 100 µM (inactive) | > 100 µM (inactive) | > 100 µM (inactive) | > 100 µM (inactive) | > 100 µM (inactive) | > 100 µM (inactive) | > 100 µM (inactive) | > 100 µM (inactive) | > 100 µM (inactive) | > 100 µM (inactive) | > 100 µM (inactive)
12 | CCCCCCCSc1nc2c(C(=O)OCC)ncn2c2ccccc12 | – | – | > 100 µM (inactive) | – | – | > 100 µM (inactive) | > 100 µM (inactive) | > 100 µM (inactive) | > 100 µM (inactive) | > 100 µM (inactive) | > 100 µM (inactive) | > 100 µM (inactive) | > 100 µM (inactive) | – | > 100 µM (inactive) | 91.8 µM (inactive) | – | > 100 µM (inactive) | > 100 µM (inactive) | > 100 µM (inactive)
13 | CN(C)CCC(O)(c1ccccc1)C(O)(CCN(C)C)c1ccccc1 (configuration not stated) | 33.1 µM (inactive) | > 100 µM (inactive) | > 100 µM (inactive) | > 100 µM (inactive) | 38.5 µM (inactive) | > 100 µM (inactive) | > 100 µM (inactive) | > 100 µM (inactive) | – | > 100 µM (inactive) | > 100 µM (inactive) | > 100 µM (inactive) | 94 µM (inactive) | > 100 µM (inactive) | > 100 µM (inactive) | 53.7 µM (inactive) | > 100 µM (inactive) | > 100 µM (inactive) | 22.3 µM (inactive) | 17.7 µM (inactive)
14 | CCO[C@]12C[C@H](OC)[C@@]3(O)CC(C1[C@H]3O)C13C4C2[C@H](OC)C1[C@](COC)(CN4CC)[C@H](O)C[C@@H]3OC (some centres not stated) | > 10 µM (inactive) | – | – | – | > 100 µM (inactive) | > 100 µM (inactive) | > 100 µM (inactive) | > 100 µM (inactive) | > 100 µM (inactive) | > 100 µM (inactive) | 66.2 µM (inactive) | > 100 µM (inactive) | > 100 µM (inactive) | > 100 µM (inactive) | > 100 µM (inactive) | – | > 100 µM (inactive) | > 100 µM (inactive) | > 100 µM (inactive) | –
15 | CC[C@]12C=CCN3CC[C@@]4(c5cc(Br)c(OC)c([N+](=O)[O-])c5N(C)[C@H]4[C@@](O)(C(=O)OC)[C@@H]1OC(C)=O)[C@@H]32 | 30.5 µM (inactive) | 40.3 µM (inactive) | 34.4 µM (inactive) | – | 36.2 µM (inactive) | > 100 µM (inactive) | > 100 µM (inactive) | > 100 µM (inactive) | 98.2 µM (inactive) | 88.7 µM (inactive) | 62.4 µM (inactive) | 6.52 µM (inactive) | > 100 µM (inactive) | 71.9 µM (inactive) | 89.5 µM (inactive) | 37 µM (inactive) | 39.8 µM (inactive) | 63.4 µM (inactive) | 33.3 µM (inactive) | 89.5 µM (inactive)
16 | Cc1ccc(NC(=O)C(Cc2c[nH]c3ccccc23)NC(=O)Oc2ccccc2)cc1C (configuration not stated) | – | 53 µM (inactive) | 34.8 µM (inactive) | > 100 µM (inactive) | 44.1 µM (inactive) | 0.728 µM (active) | 54.7 µM (inactive) | > 100 µM (inactive) | 25.2 µM (inactive) | 64.1 µM (inactive) | 84.3 µM (inactive) | 26.7 µM (inactive) | 41.3 µM (inactive) | > 100 µM (inactive) | 77.6 µM (inactive) | > 100 µM (inactive) | 66.4 µM (inactive) | > 100 µM (inactive) | > 100 µM (inactive) | 14.3 µM (inactive)

— ChEMBL document CHEMBL1201862, “PubChem BioAssay data set” (2004)
